Results published in patent US4990522A, “Esterified ephedrine derivatives with prolonged antiulcer activity” (Establissement Texcontor, priority 1987, dated 1991).
Read-outs that look alike come from different tables or passages of the source.

Assays:
[1] = tested on: ulcers induced by cold stress; assay: Antiulcer activity against ulcers induced by cold stress; assay type: in vivo, rat (Wistar); settings: rat, oral
Description: 3. ANTIULCER ACTIVITY against ulcers induced by cold stress: This trial was carried out on Wistar rats weighing about 300 grams each.
The animals were divided randomly into groups of 10 animals each and kept without food for 18 hours before the trial, but had unrestricted water. […]
After ligature, the animals were placed in a refrigerator at a temperature of between 2° C. and 4° C. for two hours.
After this time the rats were sacrificed, their stomachs were withdrawn and opened along the small curvature, and the gastric mucosa checked.
The number of ulcers was counted and their relative diameters measured. From these individual data the mean value for each treatment group was obtained and the inhibition capacity calculated as a percentage relative to the control group, using the following formula: [formula] where C is the mean value in mm for the control group and T the mean value for the group treated with the derivative under examination.

[2] = Acute toxicity in rats, endoperitoneal administration (LD50, Lichtfield and Wilcoxon); design: species or system rat (Wistar); settings: in vivo, ip, rat, mortality within eight days
Description: (§1) Acute toxicity was determined on Swiss albino mice having an average weight of about 20 grams and on Wistar rats having an average weight of 150±10 grams by endoperitoneal administration. All animals were kept fasting for 12 hours before the trial. For the trial, 10 animals, namely 5 males and 5 females, were used for each dose level.
(§2) The LD50 values, expressed as mg/kg, are calculated on the basis of the mortality determined within eight days from administration, in accordance with the Lichtfield and Wilcoxon method.

[3] = species not given, prior art; cited from earlier work
[4] = Acute toxicity in mice, endoperitoneal administration (LD50, Lichtfield and Wilcoxon); design: species or system mouse (Swiss albino); settings: in vivo, ip, mouse, mortality within eight days
Description: as §1, §2

[5] = prior art, cited from earlier work
[6] = tested on: ulcers induced by ligature of the pylorus; assay: Antiulcer activity against ulcers induced by ligature of the pylorus (Shay test); assay type: in vivo, rat (Sprague Dawley); settings: rat, oral
Description: 2. ANTIULCER ACTIVITY against ulcers induced by ligature of the pylorus (Shay test): Groups of 10 Sprague Dawley rats of body weight between 200 and 250 grams were placed in cages under conditions of standard temperature (21°±2° C.), standard relative humidity (60-70%) and standard light (12 hours per day).
The animals were fed with rat pellets and with water at will.
The derivatives to be tested were administered orally 6, 12, 24 and 36 hours before ligature of the pylorus, after dispersion in physiological solution using Tween 80 as dispersant in a quantity of 1% and carboxymethylcellulose in a quantity of 0.2%. The volume administered was 10 ml/kg.
Before ligature, the rats had been kept without food for 18 hours but with free access to water, the pylorus ligature then being made under ether anesthetic, with suture of the peritoneum and of the abdominal wall.
The animals were then kept without food or water, and 18 hours after ligature were sacrificed using chloroform, their stomachs then being withdrawn and opened along the small curvature.
The gastric surface was extended to observe the ulcers, the evaluation being made by measuring their maximum width.

[7] = 6 h before cold stress, read-out: ED50 by oral administration at 6 h before commencement of cold stress
[8] = 12 h before cold stress, * P < 0.05 versus WAS 4303 (so in the source), read-out: ED50 by oral administration at 12 h before commencement of cold stress
[9] = 24 h before cold stress, * P < 0.05 versus WAS 4303 (so in the source), read-out: ED50 by oral administration at 24 h before commencement of cold stress
[10] = 36 h before cold stress, * P < 0.05 versus WAS 4303 (so in the source), read-out: ED50 by oral administration at 36 h before commencement of cold stress
[11] = 6 h before pylorus ligature, read-out: ED50 by oral administration at 6 h before pylorus ligature
[12] = 12 h before pylorus ligature, * P < 0.05 versus WAS 4303 (so in the source), read-out: ED50 by oral administration at 12 h before pylorus ligature
[13] = 24 h before pylorus ligature, * P < 0.05 versus WAS 4303 (so in the source), read-out: ED50 by oral administration at 24 h before pylorus ligature
[14] = 36 h before pylorus ligature, * P < 0.05 versus WAS 4303 (so in the source), read-out: ED50 by oral administration at 36 h before pylorus ligature

| Compound | ED50 [1, 7] | ED50 [1, 8] | ED50 [1, 9] | ED50 [1, 10] | LD50 at 192 h [2] | LD50 for intraperitoneal administration [3] | LD50 at 192 h [4] | antiulcer activity when administered intraperitoneally ([5]; intraperitoneal, experimental tests) | duration of activity [5] | ED50 [6, 11] | ED50 [6, 12] | ED50 [6, 13] | ED50 [6, 14] |
| --- | --- | --- | --- | --- | --- | --- | --- | --- | --- | --- | --- | --- | --- |
| C[C@@H]([C@H](O)c1ccccc1)N(C)CC=C1c2ccccc2CCc2ccccc21 (relative stereo) [WAS 4304, reference compound] | 0.4 mg/kg | 1.6 mg/kg | 2.5 mg/kg | 2.8 mg/kg | 87 mg/kg | 115 mg/kg | 127 mg/kg | very interesting antiulcer activity | very limited duration | 0.2 mg/kg | 1.1 mg/kg | 1.8 mg/kg | 2.4 mg/kg |
| C[C@@H]([C@H](OC(=O)c1cccnc1)c1ccccc1)N(C)CC=C1c2ccccc2CCc2ccccc21 (relative stereo) [ET 2003] | 0.6 mg/kg | 0.9 mg/kg | 1.3 mg/kg | 1.7 mg/kg | 618 mg/kg |  | 580 mg/kg |  |  | 0.4 mg/kg | 0.4 mg/kg | 0.7 mg/kg | 1.2 mg/kg |
| C[C@@H]([C@H](OC(=O)C(N)Cc1cnc[nH]1)c1ccccc1)N(C)CC=C1c2ccccc2CCc2ccccc21 (some centres unmarked) [ET 2002] | 0.7 mg/kg | 1 mg/kg | 1.4 mg/kg | 1.9 mg/kg | 590 mg/kg |  | 535 mg/kg |  |  | 0.4 mg/kg | 0.5 mg/kg | 0.8 mg/kg | 1.1 mg/kg |
| C[C@@H]([C@H](OC(=O)c1cccs1)c1ccccc1)N(C)CC=C1c2ccccc2CCc2ccccc21 (relative stereo) [ET 2004] | 0.6 mg/kg | 0.8 mg/kg | 1.4 mg/kg | 1.8 mg/kg | 681 mg/kg |  | 630 mg/kg |  |  | 0.5 mg/kg | 0.4 mg/kg | 0.6 mg/kg | 1 mg/kg |
| CCCCCCCCCC(=O)O[C@H](c1ccccc1)[C@H](C)N(C)CC=C1c2ccccc2CCc2ccccc21 (relative stereo) [ET 2001] | 0.4 mg/kg | 0.9 mg/kg | 1.2 mg/kg | 2.1 mg/kg | 510 mg/kg |  | 585 mg/kg |  |  | 0.5 mg/kg | 0.5 mg/kg | 0.7 mg/kg | 1.3 mg/kg |
